The source of these data is paper PMC4658560, “Assessment of pharmacokinetic compatibility of short acting CDRI candidate trioxane derivative, 99–411, with long acting prescription antimalarials, lumefantrine and piperaquine” (Scientific Reports, 2015).

Where two headings read alike, the source gives them in different places.

Series [1] can be described thus: Stability in rat plasma (autosampler, bench top, freeze/thaw, long-term freezer). In kind it is in vitro ADME. On the procedure: Validation was carried out as per US FDA bioanalytical method validation guidelines. The extraction recovery of analytes, through protein precipitation extraction procedure, was determined by comparing the peak areas of extracted plasma (pre-spiked) standard QC samples (n = 6) to those of the post-spiked standards at equivalent concentrations (QC low, QC medium and QC high concentrations for the analytes and 50 ng/mL for IS). Specificity and selectivity was studied by using independent plasma samples from six different rats to investigate the potential interferences at the LC peak region for analyte and IS, using the proposed extraction procedure and chromatographic–MS conditions. Matrix effect was determined by comparing the responses of the post-extracted plasma standard QC samples (n = 6) with the response of analytes from neat standard samples, for all analytes at LLOQ[22]. Calibration curve was constructed using […] calibration standards of LUME and 99–411 and of PPQ and 99–411 (3.9, 7.8, 15.6, 31.25, 62.5, 125, 250 and 500 ng/mL) by spiking 90 μL of pooled drug free rat plasma with the appropriate working standard solution of the analytes (10 μL). The intra-day assay precision and accuracy were estimated by analyzing six replicates at four the QC levels, i.e., 3.9/7.8, 10, 100 and 400 ng/mL,for both the combinations. The inter-assay precision was determined by analyzing the four levels QC samples on three different runs. The criteria for acceptability of the data included accuracy within ± 15% deviation from the nominal values and a precision of within ± 15% relative standard deviation (R.S.D.), except for LLOQ, where it should not exceed ± 20% of accuracy as well as precision. All stability studies were conducted at two concentration levels, i.e. […] The dilution integrity experiment was performed to validate the dilution test to be carried out on higher analyte concentrations (above the upper limit of quantification), which may be encountered during real subject samples analysis. Dilution integrity experiments were carried out by 20 times dilution of plasma samples containing 8000 ng/mL of LUME and 99–411 and PPQ and 99–411 with blank plasma to obtain samples containing 400 ng/mL of the respective combinations.

The nature of series [2]: Pharmacokinetic interaction study, oral administration alone or in combination in rats. In kind it is in vivo, rat. The settings on record: for AUC(0-inf) / CL/F / Cmax / Tmax / Vd/F / half-life / AUC(0-t): rat, plasma, po. On the procedure:
Rats were divided into five groups (n = 5, each); three control groups (LUME 10 mg/kg, oral, suspension in 0.25% Sodium CMC; PPQ 50 mg/kg, oral, solution in triple distilled water; and 99–411 70 mg/kg, oral, suspension in 0.25% Sodium CMC) and two co-administration group (70 mg/kg of oral 99–411 & 10 mg/kg of oral LUME; and 70 mg/kg of oral 99–411 & 50 mg/kg of oral PPQ). The rats were fasted overnight (14–16 h) prior to the experiment but given free access to water. Blood samples were collected from the retro-orbital plexus into heparinized microfuge tubes at 0.25, 0.50, 1, 3, 6, 9, 11, 13, 15, 24, 48, 72 and 120 h post-dosing and plasma was harvested by centrifuging the blood at 15000 × g for 10 min and stored frozen at –70 ± 10 °C until bioanalysis. Plasma data were subjected to non-compartmental pharmacokinetics analysis using WinNonlin (version 5.1, Pharsight Corporation, Mountain View, USA). The pharmacokinetic parameters were compared using student’s t test. […] The relative bioavailability (RB%) was calculated according to equation 1 as follows: […]

The next series addresses T1, human P-gp (Homo sapiens, UniProt P08183).
T1 construct: purchased BD Gentest (Woburn, MA)
Kind of series: Human P-gp ATPase assay (vanadate-sensitive ATPase activity). The series is classed as biochemical. The conditions noted are these: concentration not given.

Another series concerns P-gp. The conditions noted are these: cited from earlier work.
A short description of series [3]: In situ single-pass intestinal perfusion permeability study. The series is classed as in vivo. The conditions noted are these: male, SD, rat, other: single-pass perfusion through the jejunal lumen, rat jejunum, read-out: effective permeability. On the procedure: Single-pass intestinal perfusion studies in rats (n = 5 per group) were performed using established methods adapted from the literature. Briefly, male SD rats were fasted overnight for 12 to 16 h with free access to water and anaesthetized using an intra-peritoneal injection of urethane (1 g/kg) and placed on a heated pad to keep normal body temperature. Upon verification of the loss of pain reflex, a midline longitudinal abdominal incision was made, and the lumen of the jejunum (10 cm) was catherised and flushed with 10 ml of saline pre-warmed to 37 °C. The solution of analytes (10 μM) was prepared in perfusion buffer and passed at a flow rate of 0.2 mL/min through the lumen. After allowing 30 min to reach steady-state outlet concentrations, outlet perfusate samples were collected every 15 min for 120 min perfusion period. Phenol red was used as a marker of osmosis/zero permeability. At the end, the length of segment was measured without stretching and finally the animal was euthanized. Samples were analysed by LC-MS/MS after diluting 20 times with mobile phase.

In a further series the test system is CYP3A4. Also on record: method as in PMID 21503937, PMID 10727880, PMID 11463111. The conditions noted are these: cited from earlier work.
The mark [4] stands for this setting: 50 mg/kg, PPQ 50 mg/kg oral alone (control), rats.
[5] abbreviates: PPQ 50 mg/kg oral co-administered with 99–411 70 mg/kg, rats.
The mark [6] stands for this setting: 10 mg/kg, LUME 10 mg/kg oral alone (control), rats.
Setting [7] is: 10 mg/kg, LUME 10 mg/kg oral co-administered with 99–411 70 mg/kg, rats.

T1 sequence (P08183 whole entry): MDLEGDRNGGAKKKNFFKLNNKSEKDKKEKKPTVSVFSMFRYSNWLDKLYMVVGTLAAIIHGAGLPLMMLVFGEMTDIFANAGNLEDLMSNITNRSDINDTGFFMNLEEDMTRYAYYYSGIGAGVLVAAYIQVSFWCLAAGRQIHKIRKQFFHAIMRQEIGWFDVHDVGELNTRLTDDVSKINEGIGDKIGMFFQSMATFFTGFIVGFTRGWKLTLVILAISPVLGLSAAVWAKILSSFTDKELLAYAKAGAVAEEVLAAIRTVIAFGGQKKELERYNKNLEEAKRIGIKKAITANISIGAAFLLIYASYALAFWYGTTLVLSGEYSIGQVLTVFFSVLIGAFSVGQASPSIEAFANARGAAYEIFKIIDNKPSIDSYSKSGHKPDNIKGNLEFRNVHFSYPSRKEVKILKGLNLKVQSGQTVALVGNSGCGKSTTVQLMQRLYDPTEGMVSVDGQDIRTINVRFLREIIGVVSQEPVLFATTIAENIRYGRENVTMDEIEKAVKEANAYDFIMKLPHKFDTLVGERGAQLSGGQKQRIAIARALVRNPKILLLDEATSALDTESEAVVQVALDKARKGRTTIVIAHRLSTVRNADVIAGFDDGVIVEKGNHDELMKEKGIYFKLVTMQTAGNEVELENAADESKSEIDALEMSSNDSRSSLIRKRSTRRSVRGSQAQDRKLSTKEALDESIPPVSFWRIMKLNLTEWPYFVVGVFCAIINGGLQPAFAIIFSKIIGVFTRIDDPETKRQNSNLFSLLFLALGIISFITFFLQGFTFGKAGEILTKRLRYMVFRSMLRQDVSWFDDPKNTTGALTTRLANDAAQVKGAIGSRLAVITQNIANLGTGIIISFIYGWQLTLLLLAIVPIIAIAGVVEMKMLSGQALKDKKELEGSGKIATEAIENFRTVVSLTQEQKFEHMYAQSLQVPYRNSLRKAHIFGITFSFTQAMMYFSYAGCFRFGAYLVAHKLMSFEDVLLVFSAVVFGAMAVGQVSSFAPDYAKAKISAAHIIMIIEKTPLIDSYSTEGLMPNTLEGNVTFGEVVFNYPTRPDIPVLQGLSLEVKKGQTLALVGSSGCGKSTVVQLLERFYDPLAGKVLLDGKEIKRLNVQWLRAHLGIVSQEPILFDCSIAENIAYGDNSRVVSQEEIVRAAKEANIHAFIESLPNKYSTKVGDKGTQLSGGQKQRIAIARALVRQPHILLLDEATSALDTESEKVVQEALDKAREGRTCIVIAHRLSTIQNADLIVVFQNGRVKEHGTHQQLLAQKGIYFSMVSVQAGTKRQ
Experimental for human P-gp: A human P-gp ATPase assay was performed according to the manufacturer’s protocol. […] The reaction was initiated by the addition of 20 μL of 12 mM Mg ATP solution and was terminated 20 min later by the addition of 30 μL of stop solution (10% sodium dodecyl sulfate solution). Two hundred microliters of detection reagent (8% ascorbic acid, 0.8% ammonium molybdate, 3 mM zinc acetate) was added, and the mixture was incubated at 37 °C for 20 min. The inorganic phosphate complex was detected by its absorbance at 800 nm and was quantitated by comparing the absorbance with that of phosphate standard. […] The vanadate-sensitive ATP hydrolysis was determined by subtracting the value obtained with the vanadate-coincubated membrane fraction from that obtained with the vanadate-free membrane fraction.

What is called AUC(0-inf) is the area under the concentration-time curve extrapolated to infinity. One may read the CL/F as the apparent clearance, not corrected for the fraction that reaches the circulation. As a reminder, the Cmax is the maximum level reached in the sampled fluid or tissue. The term Tmax denotes the time at which the peak concentration occurs. A word on the Vd/F: it is the apparent distribution volume after extravascular dosing. One may read the half-life as the time needed for the level to fall by half in the phase considered. As usually defined, the AUC(0-t) is the area under the concentration-time curve up to a stated or last time point. `Clc1ccc2c(N3CCN(CCCN4CCN(c5ccnc6cc(Cl)ccc56)CC4)CC3)ccnc2c1` [PPQ, piperaquine]: the “Accuracy (%) in stability test” value in series [1] (PPQ/99-411 method, 10 ng/mL, 6 h (BT, bench top, room temperature)) is on record as 99.31%; in series [1] (PPQ/99-411 method, 10 ng/mL, 24 h (AS, autosampler)) it was 105.78%; in series [1] (PPQ/99-411 method, 10 ng/mL, 15 days at -70 °C) it was 106.75%; in series [1] (PPQ/99-411 method, 10 ng/mL, FT-3 (three freeze/thaw cycles)), 99.51%; in series [1] (PPQ/99-411 method, 400 ng/mL, 6 h (BT, bench top, room temperature)), 102.13%; in series [1] (PPQ/99-411 method, 400 ng/mL, 24 h (AS, autosampler)), 102.48%. For the same compound, the “Accuracy (%) in stability test” value in series [1] (PPQ/99-411 method, 400 ng/mL, 15 days at -70 °C) is recorded as 103.59%; in series [1] (PPQ/99-411 method, 400 ng/mL, FT-3 (three freeze/thaw cycles)), 100.98%. Moreover, in series [2] (oral, rats), the “increase of Vd/F of PPQ with 99–411 co-administration” value was 194.49%. Moreover, the “increase of clearance (Cl/F) of PPQ with 99–411 co-administration” value in series [2] (oral, rats) is listed as 41.94%. The “decrease of AUC0-∞ of PPQ in presence of 99–411” value in series [2] (oral, rats, vs PPQ alone, p = 0.0018) was found to be 61.39%. Besides, the “decrease of Cmax of PPQ in presence of 99–411” value in series [2] (oral, rats, vs PPQ alone, p = 0.0154) was 61.67%. The AUC(0-inf) in series [2] (setting [4]) came out at 31500 ± 2680 ng·h/mL; in series [2] (setting [5]), 19400 ± 5290 ng·h/mL. Besides, the CL/F in series [2] (setting [4]) is 26.7 mL/min/kg; in series [2] (setting [5]), 45.5 mL/min/kg. Further, the Cmax in series [2] (setting [4]) is 890 ± 230 ng/mL; in series [2] (setting [5]) it was 540 ± 110 ng/mL. Also, the Tmax in series [2] (setting [4]) worked out at 6.6 ± 1.34 h; in series [2] (setting [5]), 6 h. Moreover, the Vd/F in series [2] (setting [4]) was 49 ± 8.38 L/kg; in series [2] (setting [5]), 166 ± 71.7 L/kg. Moreover, the half-life in series [2] (setting [4]) is 1290 ± 263 min; in series [2] (setting [5]) it was 2500 ± 707 min. The AUC(0-t) is 28100 ± 2790 ng·h/mL in series [2] (50 mg/kg, PPQ 50 mg/kg oral alone (control), rats n=5, mean ± SD) and 17000 ± 5030 ng·h/mL in series [2] (setting [5]).

For `CC(C)NCC(O)COc1cccc2ccccc12` (centres unmarked) [propranolol], on human P-gp, the “basal ATPase activity in the presence of the negative control” value was determined as 0.96.

Turning to `CCCCN(CCCC)CC(O)c1cc(Cl)cc2c1-c1ccc(Cl)cc1/C2=C/c1ccc(Cl)cc1` (centres unmarked) [LUME, lumefantrine], the “Accuracy (%) in stability test” value in series [1] (LUME/99-411 method, 10 ng/mL, 6 h (BT, bench top, room temperature)) was 91.73%; in series [1] (LUME/99-411 method, 10 ng/mL, 24 h (AS, autosampler)), 98.45%; in series [1] (LUME/99-411 method, 10 ng/mL, 15 day at -70 °C), 97.80%; in series [1] (LUME/99-411 method, 10 ng/mL, FT-3 (three freeze/thaw cycles)) it was 91.33%; in series [1] (LUME/99-411 method, 400 ng/mL, 6 h (BT, bench top, room temperature)) it was 95.94%; in series [1] (LUME/99-411 method, 400 ng/mL, 24 h (AS, autosampler)), 100.13%. Further, the “Accuracy (%) in stability test” value came to 101.30% in series [1] (LUME/99-411 method, 400 ng/mL, 15 day at -70 °C) and 100.96% in series [1] (LUME/99-411 method, 400 ng/mL, FT-3 (three freeze/thaw cycles)). The AUC(0-inf) in series [2] (setting [6]) turned out to be 17400 ± 3290 ng·h/mL; in series [2] (setting [7]), 16500 ± 3510 ng·h/mL. Also, the CL/F in series [2] (setting [6]) is 9.83 mL/min/kg; in series [2] (setting [7]) it was 10.5 mL/min/kg. Moreover, the Cmax in series [2] (setting [6]) stood at 1810 ± 750 ng/mL; in series [2] (setting [7]), 1740 ± 670 ng/mL. Moreover, the values for the Tmax in series [2] (setting [6]) and in series [2] (setting [7]) were 3.75 ± 1.5 h and 3.6 ± 1.34 h, respectively. Also, the Vd/F in series [2] (setting [6]) stood at 39.4 ± 6.26 L/kg; in series [2] (setting [7]), 46.4 ± 16.4 L/kg. For the same compound, the half-life is 2820 ± 391 min in series [2] (setting [6]) and 3040 ± 613 min in series [2] (setting [7]). For the same compound, the AUC(0-t) in series [2] (10 mg/kg, LUME 10 mg/kg oral alone (control), rats n=5, mean ± SD) was 16500 ± 2960 ng·h/mL; in series [2] (setting [7]), 15400 ± 3580 ng·h/mL. Also, the P-gp substrate status result in the series on P-gp was “P-gp substrate”. In addition, the Papp at 120 min, 10 μM in series [3] (lumefantrine co-perfused with 99–411, 10 μM) turned out to be 46.8 ± 13.7 ×10⁻⁶ cm/s; in series [3] (lumefantrine control, 10 μM), 40.3 ± 4.9 ×10⁻⁶ cm/s. Also, in the series with CYP3A4, the CYP3A4 substrate status entry is “CYP3A4 substrates”.
